Experimental data reported in article PMC6196558, “The nitrilase PtNIT1 catabolizes herbivore-induced nitriles in Populus trichocarpa” (BMC Plant Biology, 2018).

T1: PtNIT1 (Populus trichocarpa, UniProt A0A2Z4EGE4)
T1 construct: tag cleavage not mentioned
T1 sequence (A0A2Z4EGE4 1-377): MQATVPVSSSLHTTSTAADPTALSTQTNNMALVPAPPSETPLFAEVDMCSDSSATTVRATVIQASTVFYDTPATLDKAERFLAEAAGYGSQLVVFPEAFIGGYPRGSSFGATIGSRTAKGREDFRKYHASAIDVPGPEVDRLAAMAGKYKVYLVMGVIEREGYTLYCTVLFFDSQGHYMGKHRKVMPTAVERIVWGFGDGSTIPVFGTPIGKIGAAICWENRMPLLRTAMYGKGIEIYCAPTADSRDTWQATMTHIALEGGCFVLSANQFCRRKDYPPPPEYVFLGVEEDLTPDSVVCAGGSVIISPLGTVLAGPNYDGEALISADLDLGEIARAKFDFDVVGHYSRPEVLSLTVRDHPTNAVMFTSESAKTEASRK


How the values were obtained:
[1] = biological target: T1, PtNIT1; assay: LC-MS/MS product formation; assay type: biochemical; details: potassium phosphate pH 7.2, 32 °C (standard assay)
[2] = substrate: N#CCc1c[nH]c2ccccc12; assay: LC-MS/MS product formation; assay type: biochemical, Populus trichocarpa; details: potassium phosphate pH 7.2, 32 °C (standard assay)

| Molecule | Km [1] [mM] | Km [2] [mM] |
| --- | --- | --- |
| N#CCc1ccccc1 [benzyl cyanide] | 24.7 ± 1.8 |  |
| N#CC[C@H](N)C(=O)O [β-cyanoalanine] | 1.2 ± 0.1 |  |
| PtNIT1 (Populus trichocarpa) (protein, tag cleavage not mentioned) MQATVPVSSSLHTTSTAADPTALSTQTNNMALVPAPPSETPLFAEVDMCSDSSATTVRATVIQASTVFYDTPATLDKAERFLAEAAGYGSQLVVFPEAFIGGYPRGSSFGATIGSRTAKGREDFRKYHASAIDVPGPEVDRLAAMAGKYKVYLVMGVIEREGYTLYCTVLFFDSQGHYMGKHRKVMPTAVERIVWGFGDGSTIPVFGTPIGKIGAAICWENRMPLLRTAMYGKGIEIYCAPTADSRDTWQATMTHIALEGGCFVLSANQFCRRKDYPPPPEYVFLGVEEDLTPDSVVCAGGSVIISPLGTVLAGPNYDGEALISADLDLGEIARAKFDFDVVGHYSRPEVLSLTVRDHPTNAVMFTSESAKTEASRK |  | 10.0 ± 1.3 |
